Test results reported in patent US4272517A, “Permanent waving compositions” (Kanegafuchi Kagaku Kogyo Kabushiki Kaisha, priority 1978, dated 1981).

Tests used:
mice = assay: Acute oral toxicity (LD50) determined on mice; type: in vivo; details: oral administration
Description: (§1) The N-carbamoylcysteine to be used in this invention is preferably N-carbamoyl-L-cysteine or N-carbamoyl-DL-cysteine from the viewpoint of practical usefulness but can be N-carbamoyl-D-cysteine. N-carbamoyl-L-cysteine can be prepared easily, for example, by reacting L-cysteine with potassium cyanate. Since it is possible to synthesize N-carbamoyl-DL-cysteine from an inexpensive industrial material, the compound can presumably be prepared more economically than N-carbamoyl-L-cysteine.

[1] = Acute oral toxicity (LD50) determined on mice; type: in vivo; details: mouse, in vivo, oral administration
Description: as §1

[2] = type: physicochemical
Experimental: Eleven kinds of test solutions were prepared with use of L-cysteine and N-carbamoylcysteine in varying ratios as shown in Table 3 to test the solutions for storage stability. Basically these solutions have the following composition.
Each of the solutions was prepared by adding monoethanolamine (about 3 ml), L-cysteine, N-carbamoyl-L-cysteine and tetrasodium ethylenediaminetetraacetate to about 80 ml of purified water in the order mentioned with stirring, and adjusting the resulting solution to 100 ml with its pH adjusted to 9.1 with monoethanolamine. […] Test Solution A is a reference example.
The test solutions were prepared on the same day, placed into 200-ml colorless wide-mouthed reagent bottles respectively and allowed to stand at room temperature (20° to 26° C.) for 60 days with the mouths of the bottles left open. Consequently white powder of cystine separated out on the 9th day from Test Solution A containing L-cysteine alone, whereas Test Solutions B and C further containing N-carbamoyl-L-cysteine yielded white powder on the 15th day and 32nd day respectively. No powdery deposition was found in Test Solutions D to K even after the lapse of 60 days. […]

Solubility = type: physicochemical; details: at a pH of below 8.7
[3] = background statement; cited from earlier work

| Compound | toxicity (in words) (mice) | LD50 [1] [mg/kg] | stabilizing effect on cysteine (in words) [2] | further results |
| --- | --- | --- | --- | --- |
| NC(=O)NC(CS)C(=O)O (racemic) [N-carbamoyl-DL-cysteine] | extremely low in toxicity | 13100 | – | – |
| CC(=O)N[C@@H](CS)C(=O)O [N-acetylcysteine, N-acetyl-L-cysteine, reference compound] | – | – | adds to the stability of cysteine | – |
| NC(=O)N[C@@H](CS)C(=O)O [N-carbamoyl-L-cysteine] | extremely low in toxicity | 13500 | – | – |
| NC(=O)N[C@@H](CS)C(=O)O [N-carbamoylcysteine] | – | – | exceedingly superior | solubility (in words) (Solubility): not easily soluble |
| N[C@@H](CSSC[C@H](N)C(=O)O)C(=O)O [cystine] | – | – | – | solubility in water (in words) [3]: hardly soluble in water |
